The IC50 is the concentration needed to halve the response being measured. Broadly, the DC50 is the concentration giving 50% degradation. As a reminder, the Dmax is the largest share of the target that was removed.

Structures can show the parent of a compound that is named as a salt. Where two headings read alike, the source gives them in different places. Where only a bound is given, the exact number is not on record here.

This note sets out measurements from patent US20260007681A1, “INDOLE DERIVATIVES AS ESTROGEN RECEPTOR DEGRADERS” (REGENTS OF THE UNIVERSITY OF MICHIGAN, priority 2022, published 2026).

One assay deals with CRBN/DDB1 (Homo sapiens (Human), UniProt Q96SW2). Type of assay: binding. As for the experimental part:
The binding potency was determined using H-TRF assay technology (Perkin Elmer). Compounds were serially diluted in DMSO and 0.2 μL volume was transferred to white 384-well plate.

The next assay concerns the target ER in T47D cells (Homo sapiens (Human), UniProt P03372). In words: In-cell western (ICW) ER degradation assay in T47D cells (Compounds A1-A70). Type of assay: cell-based. To be noted: for DC50: ER degradation, 0.02 to 300 nM; for Dmax: T47D, read-out: T47D ICW Dmax (%).
In the next assay the target is ER in MCF-7 cells (Homo sapiens (Human), UniProt P03372). Kind of assay: In-cell western (ICW) ER degradation assay in MCF-7 cells (Compounds A1-A70). Format: cell-based. To be noted: for DC50: ER degradation, 0.02 to 300 nM, read-out: MCF7 ICW DC50.
Chain of ER in MCF-7 cells (P03372 whole entry): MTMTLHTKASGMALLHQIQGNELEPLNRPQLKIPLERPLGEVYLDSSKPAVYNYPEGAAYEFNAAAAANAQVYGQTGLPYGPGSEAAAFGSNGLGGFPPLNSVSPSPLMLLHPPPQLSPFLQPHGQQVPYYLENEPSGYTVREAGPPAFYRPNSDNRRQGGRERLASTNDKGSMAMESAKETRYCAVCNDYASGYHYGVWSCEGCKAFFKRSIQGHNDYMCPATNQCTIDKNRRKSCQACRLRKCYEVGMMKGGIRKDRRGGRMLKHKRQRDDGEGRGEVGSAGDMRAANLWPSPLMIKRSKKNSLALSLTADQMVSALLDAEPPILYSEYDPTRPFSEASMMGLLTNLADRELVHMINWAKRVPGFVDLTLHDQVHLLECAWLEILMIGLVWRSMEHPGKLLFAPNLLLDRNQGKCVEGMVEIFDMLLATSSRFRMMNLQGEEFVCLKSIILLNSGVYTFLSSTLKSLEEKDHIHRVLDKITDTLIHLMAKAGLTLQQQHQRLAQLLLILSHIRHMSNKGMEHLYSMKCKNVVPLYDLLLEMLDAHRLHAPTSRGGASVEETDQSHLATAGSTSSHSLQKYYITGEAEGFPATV
Where [1] appears, read: His tagged CRBN+DDB-DLS7+CXU4, Cy5-labeled Thalidomide probe, one hour incubation, read-out: CRBN HTRF IC50.
Where [2] appears, read: maximal ER degradation, T47D cells, 16 hrs treatment.
[3] abbreviates: MCF7, maximal ER degradation, MCF-7 cells, 16 hrs treatment, read-out: MCF7 ICW Dmax (%).
Setting [4] is: MCF7, read-out: MCF7 ICW Dmax (%).

Chain of ER in T47D cells (P03372 whole entry): as above

Regarding `COc1cc(N2CCC(CN3CCN4c5ccc6c(c5OC[C@H]4C3)CN([C@H]3CCC(=O)NC3=O)C6=O)CC2)ccc1[C@H]1c2[nH]c3ccccc3c2C[C@@H](C)N1CC(F)F` [Compound A39, (S)-3-((R)-7-((1-(4-((1S,3R)-2-(2,2-difluoroethyl)-3-methyl-2,3,4,9-tetrahydro-1H-pyrido[3,4-b]indol-1-yl)-3-methoxyphenyl)piperidin-4-yl)methyl)-1-oxo-1,3,5,5a,6,7,8,9-octahydro-2H-pyrazino[1′,2′:4,5][1,4]oxazino[2,3-e]isoindol-2-yl)piperidine-2,6-dione], the IC50 at CRBN/DDB1 (setting [1]) lay in the range of 50 to 500 nM. Also, the DC50 is less than 1 nM on ER in T47D cells (T47D cells, 16 hrs treatment) and less than 1 nM at ER in MCF-7 cells (MCF-7 cells, 16 hrs treatment). The Dmax on ER in T47D cells (setting [2]) and at ER in MCF-7 cells (setting [3]) was 50 to 75% in each case.

Take `COc1cc(N2CCC(CN3CCN4c5ccc6c(c5OC[C@@H]4C3)CN([C@@H]3CCC(=O)NC3=O)C6=O)CC2)ccc1[C@@H]1c2[nH]c3ccccc3c2C[C@@H](C)N1CC(F)F` [Compound A42, (R)-3-((S)-7-((1-(4-((1R,3R)-2-(2,2-difluoroethyl)-3-methyl-2,3,4,9-tetrahydro-1H-pyrido[3,4-b]indol-1-yl)-3-methoxyphenyl)piperidin-4-yl)methyl)-1-oxo-1,3,5,5a,6,7,8,9-octahydro-2H-pyrazino[1′,2′:4,5][1,4]oxazino[2,3-e]isoindol-2-yl)piperidine-2,6-dione]: the IC50 on CRBN/DDB1 (setting [1]) is 500 to 5000 nM. Further, the DC50 on ER in T47D cells (T47D cells, 16 hrs treatment) is less than 1 nM; at ER in MCF-7 cells (MCF-7 cells, 16 hrs treatment) it was less than 1 nM. Moreover, the Dmax on ER in T47D cells (setting [2]) and on ER in MCF-7 cells (setting [3]) was 50 to 75% in each case.

For `COc1cc(N2CCC(CN3CCN(c4ccc(C(=O)N[C@H]5CCC(=O)NC5=O)nc4)CC3)CC2)ccc1[C@@H]1c2[nH]c3ccccc3c2C[C@@H](C)N1CC(F)F` [Compound A43, 5-(4-((1-(4-((1R,3R)-2-(2,2-difluoroethyl)-3-methyl-2,3,4,9-tetrahydro-1H-pyrido[3,4-b]indol-1-yl)-3-methoxyphenyl)piperidin-4-yl)methyl)piperazin-1-yl)-N—((S)-2,6-dioxopiperidin-3-yl)picolinamide formate], the IC50 on CRBN/DDB1 (setting [1]) lay in the range of 500 to 5000 nM. Further, the DC50 on ER in T47D cells (T47D cells, 16 hrs treatment) was less than 1 nM; at ER in MCF-7 cells (MCF-7 cells, 16 hrs treatment) it was less than 1 nM. For the same compound, the Dmax on ER in T47D cells (setting [2]) and on ER in MCF-7 cells (setting [3]) was 50 to 75% in each case.

As to `COc1cc(N2CCC(CN3CCN4c5cc6c(cc5OC[C@@H]4C3)C(=O)N([C@@H]3CCC(=O)NC3=O)C6)CC2)ccc1[C@H]1c2[nH]c3ccccc3c2C[C@H](C)N1CC(F)F` [Compound A44, (R)-3-((S)-3-((1-(4-((1S,3S)-2-(2,2-difluoroethyl)-3-methyl-2,3,4,9-tetrahydro-1H-pyrido[3,4-b]indol-1-yl)-3-methoxyphenyl)piperidin-4-yl)methyl)-8-oxo-1,2,3,4,4a,5,8,10-octahydro-9H-pyrazino[1′,2′:4,5][1,4]oxazino[2,3-f]isoindol-9-yl)piperidine-2,6-dione], the IC50 on CRBN/DDB1 (setting [1]) lay within 50 to 500 nM. The DC50 on ER in T47D cells (T47D cells, 16 hrs treatment) is less than 1 nM; at ER in MCF-7 cells (MCF-7 cells, 16 hrs treatment) it was less than 1 nM. Moreover, the Dmax on ER in T47D cells (setting [2]) and on ER in MCF-7 cells (setting [3]) was 50 to 75% throughout.

At CRBN/DDB1, `COc1cc(N2CCC3(CCN(C(=O)CN4Cc5cnc(C(=O)N[C@H]6CCC(=O)NC6=O)cc5C4)CC3)CC2)ccc1[C@@H]1c2[nH]c3ccccc3c2C[C@@H](C)N1CC(F)F` [Compound A50, 2-(2-(9-(4-((1R,3R)-2-(2,2-difluoroethyl)-3-methyl-2,3,4,9-tetrahydro-1H-pyrido[3,4-b]indol-1-yl)-3-methoxyphenyl)-3,9-diazaspiro[5.5]undecan-3-yl)-2-oxoethyl)-N—((S)-2,6-dioxopiperidin-3-yl)-2,3-dihydro-1H-pyrrolo[3,4-c]pyridine-6-carboxamide formate] registered an IC50 of 500 to 5000 nM. For the same compound, the Dmax on ER in T47D cells and at ER in MCF-7 cells (setting [4]) was 50 to 75% throughout.

In the case of `COc1cc(N2CCC(CN3CCN4c5ccc(C(=O)NC6CCC(=O)NC6=O)nc5OC[C@H]4C3)CC2)ccc1[C@@H]1c2[nH]c3ccccc3c2C[C@@H](C)N1CC(F)F` (stereo partly drawn) [Compound A51, (4aR)-3-((1-(4-((1R,3R)-2-(2,2-difluoroethyl)-3-methyl-2,3,4,9-tetrahydro-1H-pyrido[3,4-b]indol-1-yl)-3-methoxyphenyl)piperidin-4-yl)methyl)-N-(2,6-dioxopiperidin-3-yl)-1,2,3,4,4a,5-hexahydropyrazino[1,2-d]pyrido[2,3-b][1,4]oxazine-8-carboxamide formate], the IC50 on CRBN/DDB1 (setting [1]) lay within 500 to 5000 nM. The DC50 was less than 1 nM at ER in T47D cells (T47D cells, 16 hrs treatment) and less than 1 nM at ER in MCF-7 cells (MCF-7 cells, 16 hrs treatment). Also, the Dmax on ER in T47D cells (setting [2]) and at ER in MCF-7 cells (setting [4]) was more than 75% each time.

For `COc1cc(N2CCC(CN3CCN(c4ccc(C(=O)NC5CCC(=O)NC5=O)nc4OC)CC3)CC2)ccc1[C@@H]1c2[nH]c3ccccc3c2C[C@@H](C)N1CC(F)F` (stereo partly drawn) [Compound A52, 5-(4-((1-(4-((1R,3R)-2-(2,2-difluoroethyl)-3-methyl-2,3,4,9-tetrahydro-1H-pyrido[3,4-b]indol-1-yl)-3-methoxyphenyl)piperidin-4-yl)methyl)piperazin-1-yl)-N-(2,6-dioxopiperidin-3-yl)-6-methoxypicolinamide], the IC50 at CRBN/DDB1 (setting [1]) was more than 5000 nM. Also, the DC50 on ER in T47D cells (T47D cells, 16 hrs treatment) is 1 to 10 nM; at ER in MCF-7 cells (MCF-7 cells, 16 hrs treatment) it was less than 1 nM. Besides, the Dmax at ER in T47D cells (setting [2]) and at ER in MCF-7 cells (setting [3]) was 25 to 50% throughout.

On to `COc1cc(N2CCC(CN3CCC(c4ccc(C(=O)NC5CCC(=O)NC5=O)nc4)CC3)CC2)ccc1[C@@H]1c2[nH]c3ccccc3c2C[C@@H](C)N1CC(F)F` (stereo partly drawn) [Compound A53, 5-(1-((1-(4-((1R,3R)-2-(2,2-difluoroethyl)-3-methyl-2,3,4,9-tetrahydro-1H-pyrido[3,4-b]indol-1-yl)-3-methoxyphenyl)piperidin-4-yl)methyl)piperidin-4-yl)-N-(2,6-dioxopiperidin-3-yl)picolinamide], for which the 50% inhibitory concentration (IC50) at CRBN/DDB1 (setting [1]) was 500 to 5000 nM. In addition, the DC50 on ER in T47D cells (T47D cells, 16 hrs treatment) was more than 100 nM; on ER in MCF-7 cells (MCF-7 cells, 16 hrs treatment) it was less than 1 nM. Moreover, the maximal degradation (Dmax) on ER in T47D cells (setting [2]) is less than 25%; on ER in MCF-7 cells (setting [3]) it was 25 to 50%.

For `COc1cc(N2CCC(CN3CCN4c5ccc(C(=O)NC6CCC(=O)NC6=O)nc5OC[C@H]4C3)CC2)ccc1[C@H]1c2[nH]c3ccccc3c2C[C@H](C)N1CC(F)F` (stereo partly drawn) [Compound A54, (4aR)-3-((1-(4-((1S,3S)-2-(2,2-difluoroethyl)-3-methyl-2,3,4,9-tetrahydro-1H-pyrido[3,4-b]indol-1-yl)-3-methoxyphenyl)piperidin-4-yl)methyl)-N-(2,6-dioxopiperidin-3-yl)-1,2,3,4,4a,5-hexahydropyrazino[1,2-d]pyrido[2,3-b][1,4]oxazine-8-carboxamide], the IC50 at CRBN/DDB1 (setting [1]) lay within 500 to 5000 nM. Also, the DC50 at ER in T47D cells (T47D cells, 16 hrs treatment) is less than 1 nM; at ER in MCF-7 cells (MCF-7 cells, 16 hrs treatment), less than 1 nM. Besides, the Dmax at ER in T47D cells (setting [2]) and on ER in MCF-7 cells (setting [3]) was 50 to 75% in each case.

Take `COc1cc(N2CCC(CN3CCN(c4ccc(C(=O)N[C@@H]5CCC(=O)NC5=O)nc4)CC3)CC2)ccc1[C@@H]1c2[nH]c3ccccc3c2C[C@@H](C)N1CC(F)F` [Compound A57, 5-(4-((1-(4-((1R,3R)-2-(2,2-difluoroethyl)-3-methyl-2,3,4,9-tetrahydro-1H-pyrido[3,4-b]indol-1-yl)-3-methoxyphenyl)piperidin-4-yl)methyl)piperazin-1-yl)-N-((R)-2,6-dioxopiperidin-3-yl)picolinamide formate]: on CRBN/DDB1 (setting [1]), the 50% inhibitory concentration (IC50) is less than 50 nM. Further, the DC50 on ER in T47D cells (T47D cells, 16 hrs treatment) is less than 1 nM; on ER in MCF-7 cells (MCF-7 cells, 16 hrs treatment) it was less than 1 nM. Moreover, the Dmax at ER in T47D cells (setting [2]) lay within 25 to 50%; at ER in MCF-7 cells (setting [3]), 50 to 75%.

Turning to `C[C@H]1Cc2c([nH]c3ccccc23)[C@H](c2cnc(N3CCC4(CC3)C[C@H](CN3CCN5c6ccc7c(c6OC[C@@H]5C3)CN([C@@H]3CCC(=O)NC3=O)C7=O)CO4)nc2)N1CC(F)F` [Compound A58, (R)-3-((S)-7-(((R)-8-(5-((1S,3S)-2-(2,2-difluoroethyl)-3-methyl-2,3,4,9-tetrahydro-1H-pyrido[3,4-b]indol-1-yl)pyrimidin-2-yl)-1-oxa-8-azaspiro[4.5]decan-3-yl)methyl)-1-oxo-1,3,5,5a,6,7,8,9-octahydro-2H-pyrazino[1′,2′:4,5][1,4]oxazino[2,3-e]isoindol-2-yl)piperidine-2,6-dione], on CRBN/DDB1 (setting [1]), the IC50 lay in the range of 50 to 500 nM. The DC50 at ER in T47D cells (T47D cells, 16 hrs treatment) was less than 1 nM; at ER in MCF-7 cells (MCF-7 cells, 16 hrs treatment), less than 1 nM. Further, the Dmax at ER in T47D cells (setting [2]) and on ER in MCF-7 cells (setting [3]) was 50 to 75% throughout.

Turning to `C[C@H]1Cc2c([nH]c3ccccc23)[C@H](c2cnc(N3CCC4(CC3)C[C@H](CN3CCN5c6cc7c(cc6OC[C@H]5C3)C(=O)N([C@@H]3CCC(=O)NC3=O)C7)CO4)nc2)N1CC(F)F` [Compound A60, (R)-3-((R)-3-(((R)-8-(5-((1S,3S)-2-(2,2-difluoroethyl)-3-methyl-2,3,4,9-tetrahydro-1H-pyrido[3,4-b]indol-1-yl)pyrimidin-2-yl)-1-oxa-8-azaspiro[4.5]decan-3-yl)methyl)-8-oxo-1,2,3,4,4a,5,8,10-octahydro-9H-pyrazino[1′,2′:4,5][1,4]oxazino[2,3-f]isoindol-9-yl)piperidine-2,6-dione], the IC50 on CRBN/DDB1 (setting [1]) lay within 500 to 5000 nM. Moreover, the DC50 was less than 1 nM at ER in T47D cells (T47D cells, 16 hrs treatment) and less than 1 nM at ER in MCF-7 cells (MCF-7 cells, 16 hrs treatment). Besides, the Dmax at ER in T47D cells (setting [2]) and at ER in MCF-7 cells (setting [3]) was 50 to 75% in each case.
